In patent US20200172529A1, “Chemical Compound, Pharmaceutical Composition Thereof, and Use and Application Thereof” (Beijing Hanmi Pharm. Co., Ltd., priority 2017, published 2020):

Columns and labels:
Format in all cases: biochemical
JAK1 kinase = JAK1 kinase (Homo sapiens, UniProt P23458); experiment: Inhibition assay of JAK1 kinase activity (ADP-Glo Kinase Assay)
Excerpt: Inhibition assay of JAK1 kinase activity: the method in ADP-Glo™ Kinase Assay (Promega, V9102) was used to determine the inhibitory activity of the test compounds against JAK1 kinase.

JAK2 kinase = JAK2 kinase (Homo sapiens, UniProt O60674); experiment: Inhibition assay of JAK2 kinase activity (ADP-Glo Kinase Assay)
Excerpt: Inhibition assay of JAK2 kinase activity: the method in ADP-Glo™ Kinase Assay (Promega, V9102) was used to determine the inhibitory activity of the test compounds against JAK2 kinase.

TYK2 kinase = molecular target: T1, TYK2 kinase (Homo sapiens, UniProt P29597); experiment: Inhibition assay of TYK2 kinase activity (ADP-Glo Kinase Assay)
T1 construct: purchased Life Technologies PR8440C
Experimental: Determination of inhibition of TYK2 kinase activity by the examples compounds disclosed herein
Inhibition assay of TYK2 kinase activity: the method of ADP-Glo™ Kinase Assay (Promega, V9102) was used to determine the inhibitory activity of the test compounds against TYK2 kinase.
TYK2 kinase (purchased from Life Technologies, article number: PR8440C) was diluted to the 2-fold final concentration (0.8 ng/mL) using reaction buffer (40 mM Tris-HCl, pH 7.5; 20 mM MgCl2; 0.1 mg/mL BSA; 1 mM DTT), and added to a 384-well plate at 5 μL/well. The test drugs were subjected to a 10-fold gradient dilution, from 10 μM, to obtain 6 concentrations, and added to experimental wells of the 384-well plate at 2.5 μL/well. 5 μL of water and 2.5 μL of buffer were added to negative control wells. 5 μL of TYK2 and 2.5 μL of water were added to positive control wells. After incubating for 10 minutes at room temperature, the substrate ATP and polyE4Y1 (Sigma, P0275) were added at 2.5 μL/well, mixed well, and then reacted at room temperature for 60 minutes. After the reaction was completed, the kinase activity was detected according to the instruction of the kit. First, the ADP-Glo reaction reagent was added at 10 μL/well, mixed well, and reacted at room temperature for 40 minutes. The kinase detection reagent was then added at 20 μL/well, mixed well, and then reacted at room temperature for 30 minutes. The detection was then performed and the IC50s of test drugs were calculated.

JAK3 kinase = molecular target: T2, JAK3 kinase (Homo sapiens, UniProt P52333); experiment: Inhibition assay of JAK3 kinase activity (ADP-Glo Kinase Assay)
T2 sequence (P52333 1-1124): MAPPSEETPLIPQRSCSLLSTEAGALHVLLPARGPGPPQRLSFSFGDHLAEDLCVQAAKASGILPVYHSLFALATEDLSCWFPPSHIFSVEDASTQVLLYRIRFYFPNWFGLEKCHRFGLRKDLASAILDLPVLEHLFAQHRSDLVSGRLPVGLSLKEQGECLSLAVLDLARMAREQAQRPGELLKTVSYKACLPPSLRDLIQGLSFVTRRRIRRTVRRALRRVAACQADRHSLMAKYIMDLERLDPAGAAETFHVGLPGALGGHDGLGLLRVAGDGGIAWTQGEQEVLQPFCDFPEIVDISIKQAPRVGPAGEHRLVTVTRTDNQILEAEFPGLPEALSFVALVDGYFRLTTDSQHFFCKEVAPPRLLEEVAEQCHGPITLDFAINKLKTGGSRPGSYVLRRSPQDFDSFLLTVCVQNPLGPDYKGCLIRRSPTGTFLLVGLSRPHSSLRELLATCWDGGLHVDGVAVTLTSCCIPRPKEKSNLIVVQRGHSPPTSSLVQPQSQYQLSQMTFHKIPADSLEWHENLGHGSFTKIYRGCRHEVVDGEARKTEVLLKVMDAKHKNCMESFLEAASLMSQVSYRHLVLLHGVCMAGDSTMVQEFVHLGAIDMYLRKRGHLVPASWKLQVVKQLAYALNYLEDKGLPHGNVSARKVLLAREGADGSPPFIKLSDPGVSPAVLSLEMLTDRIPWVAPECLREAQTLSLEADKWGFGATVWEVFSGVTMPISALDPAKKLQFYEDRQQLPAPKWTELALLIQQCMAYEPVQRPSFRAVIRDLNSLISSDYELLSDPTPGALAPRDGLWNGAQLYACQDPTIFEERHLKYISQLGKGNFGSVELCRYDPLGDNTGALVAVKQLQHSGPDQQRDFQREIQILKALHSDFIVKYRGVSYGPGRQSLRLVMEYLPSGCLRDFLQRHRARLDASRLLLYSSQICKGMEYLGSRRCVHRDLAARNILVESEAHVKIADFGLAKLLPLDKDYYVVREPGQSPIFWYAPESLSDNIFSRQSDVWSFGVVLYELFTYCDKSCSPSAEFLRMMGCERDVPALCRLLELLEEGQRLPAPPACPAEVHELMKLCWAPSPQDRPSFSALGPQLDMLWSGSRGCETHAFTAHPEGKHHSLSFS
Excerpt: Inhibition assay of JAK3 kinase activity: the method in ADP-Glo™ Kinase Assay (Promega, V9102) was used to determine the inhibitory activity of the test compounds against JAK3 kinase.

JAK2 kinase, sequence (O60674 whole entry): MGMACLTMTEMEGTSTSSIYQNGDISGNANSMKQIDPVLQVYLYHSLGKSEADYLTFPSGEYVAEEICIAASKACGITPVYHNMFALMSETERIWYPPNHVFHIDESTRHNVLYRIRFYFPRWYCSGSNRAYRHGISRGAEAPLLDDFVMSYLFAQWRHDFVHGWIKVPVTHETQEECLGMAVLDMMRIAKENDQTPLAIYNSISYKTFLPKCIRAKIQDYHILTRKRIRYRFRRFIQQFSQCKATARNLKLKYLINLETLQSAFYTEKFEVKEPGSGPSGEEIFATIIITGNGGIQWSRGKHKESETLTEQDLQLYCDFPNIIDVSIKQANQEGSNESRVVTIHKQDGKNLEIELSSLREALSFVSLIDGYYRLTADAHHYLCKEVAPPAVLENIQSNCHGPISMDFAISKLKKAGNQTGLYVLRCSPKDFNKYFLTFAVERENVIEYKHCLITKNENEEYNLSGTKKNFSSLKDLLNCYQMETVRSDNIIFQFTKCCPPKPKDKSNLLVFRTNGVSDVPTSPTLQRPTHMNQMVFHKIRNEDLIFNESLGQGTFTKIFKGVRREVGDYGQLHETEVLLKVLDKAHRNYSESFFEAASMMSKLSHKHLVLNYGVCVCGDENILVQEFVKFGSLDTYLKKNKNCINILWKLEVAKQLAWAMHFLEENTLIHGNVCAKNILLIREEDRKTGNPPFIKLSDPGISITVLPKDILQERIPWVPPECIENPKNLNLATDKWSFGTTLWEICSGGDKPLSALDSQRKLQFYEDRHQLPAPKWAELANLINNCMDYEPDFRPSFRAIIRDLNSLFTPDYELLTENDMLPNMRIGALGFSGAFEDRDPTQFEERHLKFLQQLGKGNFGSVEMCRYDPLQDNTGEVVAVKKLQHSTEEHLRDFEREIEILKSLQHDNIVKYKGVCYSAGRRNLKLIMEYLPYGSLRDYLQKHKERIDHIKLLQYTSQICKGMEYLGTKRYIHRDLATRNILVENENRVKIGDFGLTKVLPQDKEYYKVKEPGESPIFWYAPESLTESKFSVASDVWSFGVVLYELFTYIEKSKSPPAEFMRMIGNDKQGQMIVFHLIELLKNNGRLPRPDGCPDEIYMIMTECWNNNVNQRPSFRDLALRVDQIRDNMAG
T1 sequence (P29597 whole entry): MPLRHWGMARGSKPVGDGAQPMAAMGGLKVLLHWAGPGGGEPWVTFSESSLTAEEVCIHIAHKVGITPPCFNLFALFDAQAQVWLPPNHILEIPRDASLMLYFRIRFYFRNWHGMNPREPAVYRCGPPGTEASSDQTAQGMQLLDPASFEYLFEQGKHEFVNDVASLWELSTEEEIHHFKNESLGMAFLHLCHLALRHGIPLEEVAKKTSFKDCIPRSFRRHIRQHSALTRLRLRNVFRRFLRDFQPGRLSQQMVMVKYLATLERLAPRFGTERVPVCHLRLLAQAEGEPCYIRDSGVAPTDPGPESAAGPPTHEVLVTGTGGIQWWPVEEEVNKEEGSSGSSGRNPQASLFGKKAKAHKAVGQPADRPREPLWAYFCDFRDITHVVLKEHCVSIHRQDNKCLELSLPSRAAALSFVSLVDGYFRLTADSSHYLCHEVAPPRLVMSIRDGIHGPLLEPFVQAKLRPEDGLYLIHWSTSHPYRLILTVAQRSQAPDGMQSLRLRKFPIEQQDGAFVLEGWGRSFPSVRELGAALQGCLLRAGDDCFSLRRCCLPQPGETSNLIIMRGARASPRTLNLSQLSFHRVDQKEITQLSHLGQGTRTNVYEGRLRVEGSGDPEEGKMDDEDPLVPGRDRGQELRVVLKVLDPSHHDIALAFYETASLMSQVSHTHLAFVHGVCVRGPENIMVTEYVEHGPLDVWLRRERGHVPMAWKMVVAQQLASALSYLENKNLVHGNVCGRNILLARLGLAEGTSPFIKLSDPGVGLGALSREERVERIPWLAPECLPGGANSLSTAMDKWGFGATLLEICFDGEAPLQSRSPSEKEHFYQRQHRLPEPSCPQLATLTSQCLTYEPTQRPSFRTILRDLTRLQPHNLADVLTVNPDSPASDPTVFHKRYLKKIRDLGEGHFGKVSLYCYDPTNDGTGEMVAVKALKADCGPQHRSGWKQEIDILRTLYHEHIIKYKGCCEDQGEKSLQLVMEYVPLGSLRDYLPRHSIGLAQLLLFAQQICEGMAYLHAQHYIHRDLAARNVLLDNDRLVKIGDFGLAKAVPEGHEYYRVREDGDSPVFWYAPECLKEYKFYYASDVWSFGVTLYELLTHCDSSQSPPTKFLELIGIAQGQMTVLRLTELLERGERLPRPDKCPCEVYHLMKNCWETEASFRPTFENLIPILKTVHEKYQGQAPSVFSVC
JAK1 kinase, sequence (P23458 whole entry): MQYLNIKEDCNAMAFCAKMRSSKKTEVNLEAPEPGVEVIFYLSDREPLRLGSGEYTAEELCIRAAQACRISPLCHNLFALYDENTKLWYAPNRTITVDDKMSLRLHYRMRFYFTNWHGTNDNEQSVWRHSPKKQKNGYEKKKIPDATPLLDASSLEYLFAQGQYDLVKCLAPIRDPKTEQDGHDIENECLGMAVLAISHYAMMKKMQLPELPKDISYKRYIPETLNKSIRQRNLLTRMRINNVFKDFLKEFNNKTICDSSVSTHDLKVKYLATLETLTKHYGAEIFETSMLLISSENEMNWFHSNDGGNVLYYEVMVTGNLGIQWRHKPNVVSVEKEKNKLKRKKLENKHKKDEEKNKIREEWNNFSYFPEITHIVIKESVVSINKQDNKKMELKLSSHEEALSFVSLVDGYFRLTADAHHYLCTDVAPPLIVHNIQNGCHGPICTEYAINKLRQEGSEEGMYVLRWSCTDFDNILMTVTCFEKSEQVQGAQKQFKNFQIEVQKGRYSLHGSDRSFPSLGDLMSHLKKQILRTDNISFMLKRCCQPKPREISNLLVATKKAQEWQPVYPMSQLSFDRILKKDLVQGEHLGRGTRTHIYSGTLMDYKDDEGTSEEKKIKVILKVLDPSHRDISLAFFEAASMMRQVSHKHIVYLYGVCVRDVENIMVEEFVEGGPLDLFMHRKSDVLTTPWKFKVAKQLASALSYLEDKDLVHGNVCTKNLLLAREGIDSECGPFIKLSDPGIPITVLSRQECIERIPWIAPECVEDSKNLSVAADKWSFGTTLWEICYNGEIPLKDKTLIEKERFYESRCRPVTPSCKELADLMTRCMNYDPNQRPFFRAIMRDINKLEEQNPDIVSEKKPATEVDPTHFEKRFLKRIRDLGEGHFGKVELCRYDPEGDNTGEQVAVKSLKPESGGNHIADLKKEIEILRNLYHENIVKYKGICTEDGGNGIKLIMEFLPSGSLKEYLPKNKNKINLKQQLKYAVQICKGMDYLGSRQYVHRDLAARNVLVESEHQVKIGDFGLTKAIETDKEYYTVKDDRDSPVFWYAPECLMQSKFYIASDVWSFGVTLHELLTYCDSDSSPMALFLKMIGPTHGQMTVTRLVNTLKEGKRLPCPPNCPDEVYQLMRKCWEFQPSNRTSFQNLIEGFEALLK

Row | Compound | IC50 (JAK1 kinase) | IC50 (JAK2 kinase) | IC50 (TYK2 kinase) | IC50 (JAK3 kinase)
1 | NC(=O)c1cnc(Nc2ccc3c(c2)NC[C@H](O)CO3)nc1NC1CC1 [Example 26, (S)-4-(cyclopropylamino)-2-((3-hydroxy-2,3,4,5-tetrahydro-benzo[b][1,4]oxazepin-7-yl)amino)pyrimidin-5-carboxamide] | < 10 nM | < 10 nM | < 10 nM | 
2 | NC(=O)c1cnc(Nc2ccc3c(c2)NCCCO3)nc1NC1CC1 [Example 77, 4-(cyclopropylamino)-2-((2,3,4,5-tetrahydrobenzo[b][1,4]oxazepin-7-yl)amino)pyrimidin-5-carboxamide] |  |  | < 10 nM | 10 to 100 nM
3 | NC(=O)c1cnc(Nc2ccc3c(c2)NCC(O)CO3)nc1NCc1ccccc1 (centres unmarked) [Example 9, 4-(benzylamino)-2-((3-hydroxy-2,3,4,5-tetrahydro-benzo[b][1,4]oxazepin-7-yl)amino)pyrimidin-5-carboxamide] | < 10 nM | 10 to 100 nM | < 10 nM | 
4 | CCCO[C@@H]1CNc2cc(Nc3ncc(C(N)=O)c(NC4CC4)n3)ccc2OC1 [Example 84, 4-(cyclopropylamino)-2-(((R)-2,3,4,5-tetrahydro-3-propoxybenzo[b][1,4]oxazepin-7-yl)amino)pyrimidin-5-carboxamide] | 10 to 100 nM | 10 to 100 nM | 10 to 100 nM | 
5 | NC(=O)c1cnc(Nc2ccc3c(c2)NC[C@H](O)CO3)nc1NC1CCC(O)CC1 (stereo partly drawn) [Example 39, 4-((4-hydroxycyclohexyl)amino)-2(((S)-2,3,4,5-tetrahydro-3-hydroxybenzo[b][1,4]oxazepin-7-yl)amino)pyrimidin-5-carboxamide] | 10 to 100 nM |  | < 10 nM | 
6 | NC(=O)c1cnc(Nc2ccc3c(c2)NC[C@H](O)CO3)nc1NC12CC3CC(CC(C3)C1)C2 [Example 45, 4-(adamantan-1-ylamino)-2-(((S)-2,3,4,5-tetrahydro-3-hydroxybenzo[bb][1,4]oxazepin-7-yl)amino)pyrimidin-5-carboxamide] | 10 to 100 nM |  | 10 to 100 nM | 
7 | NC(=O)c1cnc(Nc2ccc3c(c2)NC[C@H](O)CO3)nc1NCc1ccnc2[nH]ccc12 [Example 41, 4-(((1H-pyrrolo[2,3-b]pyridin-4-yl)methyl)amino)-2-(((S)-2,3,4,5-tetrahydro-3-hydroxybenzo[b][1,4]oxazepin-7-yl)amino)pyrimidin-5-carboxamide] | < 10 nM |  | < 10 nM | 
8 | NC(=O)c1cnc(Nc2ccc3c(c2)NC[C@H](O)CO3)nc1NC1CCCCC1 [Example 33, 4-(cyclohexylamino)-2-(((S)-2,3,4,5-tetrahydro-3-hydroxybenzo[b][1,4]oxazepin-7-yl)amino)pyrimidin-5-carboxamide] | 10 to 100 nM |  | < 10 nM | 
9 | CO[C@H]1CNc2cc(Nc3ncc(C(N)=O)c(NC4CC4)n3)ccc2OC1 [Example 27, (S)-4-(cyclopropylamino)-2-((3-methoxy-2,3,45-tetrahydro-benzo[b][1,4]oxazepin-7-yl)amino)pyrimidin-5-carboxamide] | < 10 nM | 10 to 100 nM | < 10 nM | 
10 | Cc1cccc(Nc2nc(Nc3ccc4c(c3)NCC(O)CO4)ncc2C(N)=O)c1 (centres unmarked) [Example 17, 4-((3-methylphenyl)amino)-2-((3-hydroxy-2,3,4,5-tetrahydro-benzo[b][1,4]oxazepin-7-yl)amino)pyrimidin-5-carboxamide] | 10 to 100 nM |  | < 10 nM | 
11 | CNc1nc(Nc2ccc3c(c2)NC[C@H](O)CO3)ncc1C(N)=O [Example 47, 4-(methylamino)-2-(((S)-2,3,4,5-tetrahydro-3-hydroxybenzo[b][1,4]oxazepin-7-yl)amino)pyrimidin-5-carboxamide] | 10 to 100 nM |  | < 10 nM | 
12 | CCCCO[C@H]1CNc2cc(Nc3ncc(C(N)=O)c(NC4CC4)n3)ccc2OC1 [Example 81, 4-(cyclopropylamino)-2-(((S)-2,3,4,5-tetrahydro-3-butoxybenzo[b][1,4]oxazepin-7-yl)amino)pyrimidin-5-carboxamide] | 10 to 100 nM |  | < 10 nM | 10 to 100 nM
13 | NC(=O)c1cnc(Nc2ccc3c(c2)NCC(O)CO3)nc1NCc1cccnc1 (centres unmarked) [Example 14, 4-((pyridin-3-ylmethyl)amino)-2-((3-hydroxy-2,3,4,5-tetrahydro-benzo[b][1,4]oxazepin-7-yl)amino)pyrimidin-5-carboxamide] | 10 to 100 nM |  | < 10 nM | 
14 | NC(=O)c1cnc(Nc2ccc3c(c2)NC[C@H](O)CO3)nc1NCCCCO [Example 48, 4-((4-hydroxybutyl)amino)-2-(((S)-2,3,4,5-tetrahydro-3-hydroxybenzo[b][1,4]oxazepin-7-yl)amino)pyrimidin-5-carboxamide] | < 10 nM | < 10 nM | < 10 nM | 
15 | NC(=O)c1cnc(Nc2ccc3c(c2)NCC(O)CO3)nc1NC1CCOCC1 (centres unmarked) [Example 6, 4-((tetrahydropyran-4-yl)amino)-2-((3-hydroxy-2,3,4,5-tetrahydro-benzo[b][1,4]oxazepin-7-yl)amino)pyrimidin-5-carboxamide] | 10 to 100 nM |  | < 10 nM | 
16 | NC(=O)c1cnc(Nc2ccc3c(c2)NC[C@H](O)CO3)nc1NC1CCC(O)C1 (stereo partly drawn) [Example 37, 4-((3-hydroxycyclopentyl)amino)-2-(((S)-2,3,4,5-tetrahydro-3-hydroxybenzo[b][1,4]oxazepin-7-yl)amino)pyrimidin-5-carboxamide] | < 10 nM |  | < 10 nM | 
17 | NC(=O)c1cnc(Nc2ccc3c(c2)NC[C@H](O)CO3)nc1NC12CC3CC(C1)C(O)C(C3)C2 (stereo partly drawn) [Example 49, 4-((4-hydroxyadamantan-1-yl)amino)-2-(((S)-2,3,4,5-tetrahydro-3-hydroxybenzo[b][1,4]oxazepin-7-yl)amino)pyrimidin-5-carboxamide] | < 10 nM | < 10 nM | < 10 nM | 
18 | NC(=O)c1cnc(Nc2ccc3c(c2)NCC(O)CO3)nc1NCC(F)(F)F (centres unmarked) [Example 7, 4-((2,2,2-trifluoroethyl)amino)-2-((3-hydroxy-2,3,4,5-tetrahydro-benzo[b][1,4]oxazepin-7-yl)amino)pyrimidin-5-carboxamide] | 10 to 100 nM | 10 to 100 nM | < 10 nM | 
19 | NC(=O)c1cnc(Nc2ccc3c(c2)NCC(O)CO3)nc1NC1CCCCC1 (centres unmarked) [Example 4, 4-(cyclohexylamino)-2-((3-hydroxy-2,3,4,5-tetrahydro-benzo[b][1,4]oxazepin-7-yl)amino)pyrimidin-5-carboxamide] | 10 to 100 nM |  | < 10 nM | 
20 | CC(C)Nc1nc(Nc2ccc3c(c2)NC[C@H](O)CO3)ncc1C(N)=O [Example 30, 4-(isopropylamino)-2-(((S)-2,3,4,5-tetrahydro-3-hydroxybenzo[b][1,4]oxazepin-7-yl)amino)pyrimidin-5-carboxamide] | 10 to 100 nM |  | < 10 nM | 
21 | N#CCNc1nc(Nc2ccc3c(c2)NCC(O)CO3)ncc1C(N)=O (centres unmarked) [Example 8, 4-(cyanomethylamino)-2-((3-hydroxy-2,3,4,5-tetrahydro-benzo[b][1,4]oxazepin-7-yl)amino)pyrimidin-5-carboxamide] | 10 to 100 nM |  | < 10 nM | 
